Measurements: ChEMBL document CHEMBL1151544, “Biarylcarboxamide inhibitors of phosphodiesterase IV and tumor necrosis factor-” (Bioorg Med Chem Lett, 1997)

Assays:
[1] = Ability to block the release of TNF-alpha in human monocytes; format: functional, cell-based
Homo sapiens = species on record: Homo sapiens; assay: Ability to block the release of TNF-alpha in human whole blood; format: functional
Phosphodiesterase 4 = Phosphodiesterase 4 (Homo sapiens, UniProt P27815+Q08499+Q07343+Q08493); assay: Tested for its ability to inhibit the hydrolysis of cAMP by human monocyte cytosol phosphodiesterase; format: protein assay
U-937 = assay: Ability to elevate intracellular levels of cAMP in human U937 cells; format: functional, cell-based
Mus musculus [2] = assay: Inhibition of LPS stimulated TNF-alpha release in mice at 1 mg/kg; format: functional
Mus musculus [3] = assay: Inhibition of LPS stimulated TNF-alpha release in mice at 10 mg/kg; format: functional

| Compound | IC50 [1] [nM] | IC50 (U-937) [nM] | other results |
| --- | --- | --- | --- |
| COc1ccc(-c2ccc(C(N)=O)cc2Cl)cc1OC1CCCC1 | 260 |  |  |
| COc1ccc(-c2ccc(C(N)=O)cc2)cc1OC1CCCC1 | 26 | 81 | IC50 (Homo sapiens): 450 nM; IC50 (Phosphodiesterase 4): 5910 nM |
| COc1ccc(C2CNC(=O)C2)cc1OC1CCCC1 (stereo not given) [ROLIPRAM] | 310 | 1230 | inhibition in vivo at 1 mg/kg (Mus musculus [2]): 68% |
| COc1ccc(-c2ncc(C(N)=O)cc2Cl)cc1OC1CCCC1 | 360 |  |  |
| COc1ccc(-c2ccc(C(N)=O)c(C)c2)cc1OC1CCCC1 | 190 |  |  |
| COc1ccc([C@]2(C#N)CC[C@@H](C(=O)O)CC2)cc1OC1CCCC1 [CILOMILAST] | 290 | 3630 | IC50 (Homo sapiens): 6120 nM; inhibition in vivo at 10 mg/kg (Mus musculus [3]): 59.4% |
| COc1ccc(-c2ccc(C(N)=O)c(C(F)(F)F)c2)cc1OC1CCCC1 | 1170 |  |  |
| COc1ccc(-c2ccc(C(N)=O)nc2)cc1OCCCc1ccccc1 | 2310 |  |  |
| COc1ccc(-c2ccc(C(N)=O)c(Cl)c2)cc1OC1CCCC1 | 82 |  |  |
| COc1ccc(-c2ccc(C(N)=O)nc2)cc1O[C@H]1CC2CCC1C2 (stereo not given in full) | 9 | 49 | IC50 (Homo sapiens): 140 nM; IC50 (Phosphodiesterase 4): 1070 nM |
| COc1ccc(-c2ccc(C(N)=O)nc2)cc1OC1Cc2ccccc2C1 | 120 |  |  |
| COc1ccc(-c2ccc(C(N)=O)cn2)cc1OC1CCCC1 | 80 |  |  |
| COc1ccc(-c2ccc(C(=O)O)cc2)cc1O[C@H]1CC2CCC1C2 (stereo not given in full) | 140 |  |  |
| COc1ccc(-c2ccc(C(N)=O)cc2)cc1O[C@H]1CC2CCC1C2 (stereo not given in full) | 24 | 22 | IC50 (Homo sapiens): 180 nM; IC50 (Phosphodiesterase 4): 3610 nM |
| COc1ccc(-c2ccc(C(N)=O)cc2)cc1OC1Cc2ccccc2C1 | 320 |  |  |
| COc1ccc(-c2ccc(C(N)=O)nc2)cc1OC1CCCC1 | 37 | 46 | IC50 (Homo sapiens): 180 nM; inhibition in vivo at 1 mg/kg (Mus musculus [2]): 65.2%; IC50 (Phosphodiesterase 4): 340 nM |
| COc1ccc(-c2ccc(C(N)=O)nc2)cc1OCCc1ccccc1 | 180 |  |  |
